The record followed here is patent US20250195513A1, “DEGRADATION OF IRAK4 BY CONJUGATION OF IRAK4 INHIBITORS WITH E3 LIGASE LIGAND AND METHODS OF USE” (BeiGene, Ltd., priority 2022, published 2025).

Assay [1] deals with T1, IRAK4 (Homo sapiens, UniProt Q9NWZ3).
T1 construct: endogenous in cells; host or cells: Karpas299
T1 sequence (Q9NWZ3 1-460): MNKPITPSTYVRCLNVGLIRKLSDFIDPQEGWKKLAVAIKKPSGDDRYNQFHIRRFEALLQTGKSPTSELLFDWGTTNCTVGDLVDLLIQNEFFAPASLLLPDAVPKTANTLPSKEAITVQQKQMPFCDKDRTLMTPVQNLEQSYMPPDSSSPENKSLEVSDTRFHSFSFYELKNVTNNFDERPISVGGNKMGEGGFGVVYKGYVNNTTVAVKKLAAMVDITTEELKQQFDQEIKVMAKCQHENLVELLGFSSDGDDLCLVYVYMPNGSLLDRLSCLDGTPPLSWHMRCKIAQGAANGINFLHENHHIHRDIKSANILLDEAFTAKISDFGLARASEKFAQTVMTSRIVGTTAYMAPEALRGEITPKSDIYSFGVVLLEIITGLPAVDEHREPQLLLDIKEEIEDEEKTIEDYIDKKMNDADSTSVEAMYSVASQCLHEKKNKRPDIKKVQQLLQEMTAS
Briefly: IRAK4 Degradation Assay with Human Serum (Karpas299, HTRF/TR-FRET). It counts as cell-based. Conditions: Karpas-299 in human serum, 24 hrs treatment; for DC50: read-out: IRAK4 degradtion with human serum assay DC50; for Dmax: read-out: IRAK4 degradtion with human serum assay Dmax (%). Summed up:
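Remaining IRAK4 measured by TR-FRET immunoassay on lysates of Karpas299 cells exposed 24 h to compound dilution series in human serum AB. DC50 derived from a Hill-slope fit of % degradation versus concentration.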
Background: In TR-FRET formats the signal depends on donor and acceptor labels being close together.

Assay [2] concerns the target T1, IRAK4. Briefly: IRAK4 Degradation Assay (Karpas299, HTRF/TR-FRET). It is filed as cell-based. The conditions noted are these: Karpas-299 cells, 24 h treatment; for Dmax: maximum percentage of degradation, read-out: IRAK4 in Karpas-299 (24 h) Dmax (%); for DC50: read-out: IRAK4 in Karpas-299 (24 h) DC50. The essentials:
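Compound potency as DC50 (IC50) came from four-parameter fits of percent IRAK4 degradation. IRAK4 was measured by HTRF (665/620 nm) in lysates of Karpas299 cells seeded at 0.2 million per well. Cells had been treated with compound dilutions for 5 or 24 h.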

Turning to `CC(C)(O)c1cc2nn(C3CCN([C@@H]4CCN(C5CCN(c6cc(F)c([C@H]7CCC(=O)NC7=O)c(F)c6)CC5)CC4(F)F)CC3)cc2cc1NC(=O)c1ccc2cc(C#N)cnn12` [Example 341, 3-cyano-N-(2-((R)-1″-(4-((R)-2,6-dioxopiperidin-3-yl)-3,5-difluorophenyl)-3′,3′-difluoro-[1,4′:1′,4″-terpiperidin]-4-yl)-6-(2-hydroxypropan-2-yl)-2H-indazol-5-yl)pyrrolo[1,2-b]pyridazine-7-carboxamide], in assay [1], the DC50 turned out to be 15 nM and the Dmax turned out to be 96%. For the same compound, in assay [2], the Dmax was found to be 97% and the DC50 worked out at 1.5 nM.
`CC(C)(O)c1cc2nn([C@H]3CC[C@H](N4CCN(C(=O)[C@@H]5CCN(c6cc(F)c(N7CCC(=O)NC7=O)c(F)c6)C5)CC4)CC3)cc2cc1NC(=O)c1ccc2cc(C#N)cnn12` [Example 106, 3-cyano-N-(2-((1R,4r)-4-(4-((R)-1-(4-(2,4-dioxotetrahydropyrimidin-1(2H)-yl)-3,5-difluorophenyl)pyrrolidine-3-carbonyl)piperazin-1-yl)cyclohexyl)-6-(2-hydroxypropan-2-yl)-2H-indazol-5-yl)pyrrolo[1,2-b]pyridazine-7-carboxamide]: in assay [1], the DC50 worked out at 57 nM and the Dmax is 97%. Moreover, in assay [2], the Dmax stood at 97% and the DC50 stood at 2.4 nM.
`CC(C)(O)c1cc2nn(C3CCC4(CC3)CCN(C3CN(c5cc(F)c([C@H]6CCC(=O)NC6=O)c(F)c5)C3)CC4)cc2cc1NC(=O)c1ccc2cc(C#N)cnn12` [Example 428, (R)-3-cyano-N-(2-(3-(1-(4-(2,6-dioxopiperidin-3-yl)-3,5-difluorophenyl)azetidin-3-yl)-3-azaspiro[5.5]undecan-9-yl)-6-(2-hydroxypropan-2-yl)-2H-indazol-5-yl)pyrrolo[1,2-b]pyridazine-7-carboxamide]: in assay [1], the DC50 turned out to be 33 nM and the Dmax came to 94%. In addition, in assay [2], the Dmax was 93% and the DC50 was 2.9 nM.
On the same counts, the results for `COC[C@H]1CN([C@H]2CC[C@H](n3cc4cc(NC(=O)c5ccc6cc(C#N)cnn56)c(C(C)(C)O)cc4n3)CC2)CCN1C(=O)[C@@H]1CCN(c2cc(F)c(N3CCC(=O)NC3=O)c(F)c2)C1` [Example 316, 3-cyano-N-(2-((1R,4r)-4-((R)-4-((R)-1-(4-(2,4-dioxotetrahydropyrimidin-1(2H)-yl)-3,5-difluorophenyl)pyrrolidine-3-carbonyl)-3-(methoxymethyl)piperazin-1-yl)cyclohexyl)-6-(2-hydroxypropan-2-yl)-2H-indazol-5-yl)pyrrolo[1,2-b]pyridazine-7-carboxamide] are 35 nM, 95%, 97% and 1.6 nM.
Take `CC(=O)c1cc2nn([C@H]3CC[C@H](N4CCN(C5CN(c6cc(F)c([C@H]7CCC(=O)NC7=O)c(F)c6)C5)CC4)CC3)cc2cc1NC(=O)c1ccc2cc(C#N)cnn12` [Example 425, N-(6-acetyl-2-((1R,4r)-4-(4-(1-(4-((R)-2,6-dioxopiperidin-3-yl)-3,5-difluorophenyl)azetidin-3-yl)piperazin-1-yl)cyclohexyl)-2H-indazol-5-yl)-3-cyanopyrrolo[1,2-b]pyridazine-7-carboxamide]: in assay [1], the DC50 was found to be 19 nM and the Dmax amounted to 94%. Also, in assay [2], the Dmax came to 98% and the DC50 came out at 0.6 nM.
Taken in the same sequence, the figures for `COc1cc(N2CC[C@@H](C(=O)N3CCN([C@H]4CC[C@H](n5cc6cc(NC(=O)c7ccc8cc(C#N)cnn78)c(C(C)(C)O)cc6n5)CC4)CC3)C2)cc(F)c1N1CCC(=O)NC1=O` [Example 212, 3-cyano-N-(2-((1R,4r)-4-(4-((R)-1-(4-(2,4-dioxotetrahydropyrimidin-1(2H)-yl)-3-fluoro-5-methoxyphenyl)pyrrolidine-3-carbonyl)piperazin-1-yl)cyclohexyl)-6-(2-hydroxypropan-2-yl)-2H-indazol-5-yl)pyrrolo[1,2-b]pyridazine-7-carboxamide] were 40 nM, 95%, 94% and 3.6 nM.
On the same counts, the results for `CC(C)(O)c1cc2nn([C@H]3CC[C@H](N4CCN(CCc5cc(F)c([C@H]6CCC(=O)NC6=O)c(F)c5)CC4=O)CC3)cc2cc1NC(=O)c1ccc2cc(C#N)cnn12` [Example 334, 3-cyano-N-(2-((1R,4r)-4-(4-(4-((R)-2,6-dioxopiperidin-3-yl)-3,5-difluorophenethyl)-2-oxopiperazin-1-yl)cyclohexyl)-6-(2-hydroxypropan-2-yl)-2H-indazol-5-yl)pyrrolo[1,2-b]pyridazine-7-carboxamide] are 6.3 nM, 94%, 95% and 0.6 nM.
On to `Cc1nc(C2CCC(=O)NC2=O)ccc1N1CCC(N2CCN(C34CC(n5cc6cc(NC(=O)c7ccc8cc(C#N)cnn78)c(C(C)(C)O)cc6n5)(C3)C4)CC2)CC1` (centres unmarked) [Example 419, 3-cyano-N-(2-(3-(4-(1-(6-(2,6-dioxopiperidin-3-yl)-2-methylpyridin-3-yl)piperidin-4-yl)piperazin-1-yl)bicyclo[1.1.1]pentan-1-yl)-6-(2-hydroxypropan-2-yl)-2H-indazol-5-yl)pyrrolo[1,2-b]pyridazine-7-carboxamide], for which the DC50 was 4 nM in assay [1] and 1.6 nM in assay [2]. For the same compound, the Dmax in assay [1] and in assay [2] was 97% in each case.
With `CC(C)(O)c1cc2nn(C34CC(N5CCN(C(=O)C6CN(c7cc(F)c([C@H]8CCC(=O)NC8=O)c(F)c7)C6)CC5)(C3)C4)cc2cc1NC(=O)c1ccc2cc(C#N)cnn12` [Example 157, (R)-3-cyano-N-(2-(3-(4-(1-(4-(2,6-dioxopiperidin-3-yl)-3,5-difluorophenyl)azetidine-3-carbonyl)piperazin-1-yl)bicyclo[1.1.1]pentan-1-yl)-6-(2-hydroxypropan-2-yl)-2H-indazol-5-yl)pyrrolo[1,2-b]pyridazine-7-carboxamide], in assay [1], the DC50 worked out at 21 nM and the Dmax worked out at 99%. Further, in assay [2], the Dmax stood at 98% and the DC50 is 0.4 nM.
On the same counts, the results for `COC[C@H]1CN(C2CCN(c3ccc(C4CCC(=O)NC4=O)nc3C)CC2)CCN1[C@H]1CC[C@H](n2cc3cc(NC(=O)c4ccc5cc(C#N)cnn45)c(C(C)(C)O)cc3n2)CC1` (stereo partly drawn) [Example 415, 3-cyano-N-(2-((1R,4r)-4-((2R)-4-(1-(6-(2,6-dioxopiperidin-3-yl)-2-methylpyridin-3-yl)piperidin-4-yl)-2-(methoxymethyl)piperazin-1-yl)cyclohexyl)-6-(2-hydroxypropan-2-yl)-2H-indazol-5-yl)pyrrolo[1,2-b]pyridazine-7-carboxamide] are 8.6 nM, 98%, 97% and 1.4 nM.
On the same counts, the results for `CC(C)(O)c1cc2nn([C@H]3CC[C@H](N4CCN([C@H]5C[C@H](c6ccc(N[C@@H]7CCC(=O)NC7=O)cc6)C5)CC4)CC3)cc2cc1NC(=O)c1ccc2cc(C#N)cnn12` [Example 272, 3-cyano-N-(2-((1R,4r)-4-(4-((1R,3R)-3-(4-(((R)-2,6-dioxopiperidin-3-yl)amino)phenyl)cyclobutyl)piperazin-1-yl)cyclohexyl)-6-(2-hydroxypropan-2-yl)-2H-indazol-5-yl)pyrrolo[1,2-b]pyridazine-7-carboxamide] are 19 nM, 94%, 96% and 6.7 nM.

For orientation: DC50 means the concentration giving 50% degradation. As usually defined, the Dmax is the greatest extent of degradation seen.
